{"source": "patent US4758580A", "about": "“Inhibiting growth of tumors with certain substituted phenoxy dimethyl alkanoic acids, esters or salts” (Yamanouchi Pharmaceutical Co., Ltd., priority 1985, dated 1988)", "key": {"Ehrlich solid tumor": {"system": "Ehrlich solid tumor", "experiment": "Anti-tumor test against Ehrlich solid tumor", "assay_type": "in vivo, ddY/SLC mice", "experimental": "Ehrlich tumor cells, 2×10^6, on Day 7 after intraperitoneal transplantation to ddY/SLC mice were subcutaneously transplanted in the left abdomen of ddY/SLC mice (5 week age, male), 10 each grouped into one. The active component was intraperitoneally or orally administered in a definite dose 24 hours after the transplantation, according to the schedule shown in Table 1 (A), (B) or (C). An effect of inhibiting growth of tumor was compared, by measuring the long diameter and short diameter of the tumor on 14, 20 and 21 Days after the transplantation, calculating the tumor size (mm^2) and determining a tumor growth inhibition rate of the group administered with the active component to the control group according to the following equation:\nGrowth inhibition rate (%)=(C-T)/C×100\nT: means tumor size (mm^2) in the active component-administered group\nC: mean tumor size (mm^2) in the control group"}, "MM-46 solid tumor": {"system": "MM-46 solid tumor", "experiment": "Test against mouse mammalian MM-46 solid tumor", "assay_type": "in vivo, C3 H/He/SLC mice", "settings": "1-9 Days", "experimental": "(§1) MM-46 Tumor cells, 1×10^6, on Day 7 after intraperitoneal transplantation to C3 H/He/SLC mice were subcutaneously transplanted to the left abdomen of C3 H/He/SLC mice (5 week age, male) of 8 mice each being grouped in one (21 mice for the control group). The active component was orally administered in a definite dose 24 hours after the transplantation according to the schedule shown in Table 2. An effect of tumor growth inhibition was compared by measuring the long diameter and short diameter of the tumor on Days 14 and 21 after the transplantation, calculating the tumor size (mm^2) and determining a tumor growth inhibition rate of the active component-administered group to the control group."}, "Meth A solid tumor": {"system": "Meth A solid tumor", "experiment": "Anti-tumor test against methyl cholanthrene-induced Meth A solid tumor", "assay_type": "in vivo, Balb/C/SLC mice", "settings": "1-8 Days", "experimental": "as §1, with “Meth A tumor” for “MM-46 Tumor”, “1.5×10^6,” for “1×10^6,”, “Balb/C/SLC” for “C3 H/He/SLC”, “(16” for “(21”, “3.” for “2.”, “15” for “14”"}, "melanoma BL-6": {"system": "melanoma BL-6", "experiment": "Inhibition of experimental metastasis (to the lung) of melanoma BL-6 in mice", "assay_type": "in vivo, male BDF1 /SLC mice", "settings": "22th day", "experimental": "(b) Inhibition of experimental metastasis (to the lung) of melanoma BL-6 in mice\nBL-6 cancer cells, 5×10^4, were inoculated into the tail veins of male BDF1 /SLC mice (6 week age) of 6 mice each being grouped in one (13 mice for the control group). The test compounds were administered orally in a definite dose 24 hours after the inoculation. In order to see metastasis-inhibitory effect, on 22th day after the inoculation, the mice were anatomised to observe the metastasis to the lungs. The degree of metastasis was evaluated by the number of pulmonary nodules. [formula] T: Median number of pulmonary nodules of the administered group C: Median number of pulmonary nodules of the control group"}, "[1]": {"settings": "Day 14, 1.0 mg/kg i.p., Days 1, 2, 3, 5 & 6"}, "[2]": {"settings": "Day 21, 1.0 mg/kg i.p., Days 1, 2, 3, 5 & 6"}, "[3]": {"settings": "50 mg/kg oral, 1, 2, 3, 5, 6, 7, 8, 9 and 10 days"}, "[4]": {"settings": "100 mg/kg oral, 1, 2, 3, 5, 6, 7, 8, 9 and 10 days"}, "[5]": {"settings": "Day 14, 50 mg/kg i.p., Days 1, 2, 3, 4, 6, 7, 8, 9"}, "[6]": {"settings": "Day 14, 100 mg/kg i.p., Days 1, 2, 3, 4, 6, 7, 8, 9"}, "[7]": {"settings": "Day 21, 50 mg/kg i.p., Days 1, 2, 3, 4, 6, 7, 8, 9"}, "[8]": {"settings": "Day 21, 100 mg/kg i.p., Days 1, 2, 3, 4, 6, 7, 8, 9"}, "[9]": {"settings": "Day 14, 25 mg/kg i.p., Days 1, 2, 3, 5, 6, 7 & 9"}, "[10]": {"settings": "Day 14, 50 mg/kg i.p., Days 1, 2, 3, 5, 6, 7 & 9"}, "[11]": {"settings": "Day 14, 100 mg/kg i.p., Days 1, 2, 3, 5, 6, 7 & 9"}, "[12]": {"settings": "Day 21, 25 mg/kg i.p., Days 1, 2, 3, 5, 6, 7 & 9"}, "[13]": {"settings": "Day 21, 50 mg/kg i.p., Days 1, 2, 3, 5, 6, 7 & 9"}, "[14]": {"settings": "Day 21, 100 mg/kg i.p., Days 1, 2, 3, 5, 6, 7 & 9"}}}
{"smiles": "CO[C@@]12[C@H](COC(N)=O)C3=C(C(=O)C(C)=C(N)C3=O)N1C[C@@H]1N[C@@H]12", "note": "[Mitomycin, reference compound]", "values": [{"measurement": "Growth Inhibition Rate", "setting": "Ehrlich solid tumor; [1]", "result": 67.7, "unit": "%"}, {"measurement": "Size of Tumor", "setting": "Ehrlich solid tumor; [1]", "result": "75.6 ± 31.5", "unit": "mm^2"}, {"measurement": "Growth Inhibition Rate", "setting": "Ehrlich solid tumor; [2]", "result": 80.0, "unit": "%"}, {"measurement": "Size of Tumor", "setting": "Ehrlich solid tumor; [2]", "result": "106.8 ± 62.2", "unit": "mm^2"}]}
{"smiles": "O=c1[nH]c(=O)n(C2CCCO2)cc1F", "note": "(stereo not shown) [Tetrahydrofuryl-5-fluorouracil, reference compound]", "values": [{"measurement": "Growth Inhibition Rate", "setting": "MM-46 solid tumor; Day 14, 50 mg/kg p.o.", "result": 14.2, "unit": "%"}, {"measurement": "Size of Tumor", "setting": "MM-46 solid tumor; Day 14, 50 mg/kg p.o.", "result": "216.0 ± 55.1", "unit": "mm^2"}, {"measurement": "Growth Inhibition Rate", "setting": "MM-46 solid tumor; Day 14, 100 mg/kg p.o.", "result": 14.7, "unit": "%"}, {"measurement": "Size of Tumor", "setting": "MM-46 solid tumor; Day 14, 100 mg/kg p.o.", "result": "214.8 ± 55.6", "unit": "mm^2"}, {"measurement": "Growth Inhibition Rate", "setting": "MM-46 solid tumor; Day 21, 50 mg/kg p.o.", "result": 26.9, "unit": "%"}, {"measurement": "Size of Tumor", "setting": "MM-46 solid tumor; Day 21, 50 mg/kg p.o.", "result": "247.0 ± 101.8", "unit": "mm^2"}, {"measurement": "Growth Inhibition Rate", "setting": "MM-46 solid tumor; Day 21, 100 mg/kg p.o.", "result": 26.0, "unit": "%"}, {"measurement": "Size of Tumor", "setting": "MM-46 solid tumor; Day 21, 100 mg/kg p.o.", "result": "250.1 ± 92.9", "unit": "mm^2"}, {"measurement": "Growth Inhibition Rate", "setting": "Meth A solid tumor; Day 15, 50 mg/kg p.o.", "result": 45.1, "unit": "%"}, {"measurement": "Size of Tumor", "setting": "Meth A solid tumor; Day 15, 50 mg/kg p.o.", "result": "123.4 ± 69.9", "unit": "mm^2"}, {"measurement": "Growth Inhibition Rate", "setting": "Meth A solid tumor; Day 15, 100 mg/kg p.o.", "result": 58.6, "unit": "%"}, {"measurement": "Size of Tumor", "setting": "Meth A solid tumor; Day 15, 100 mg/kg p.o.", "result": "93.1 ± 50.3", "unit": "mm^2"}, {"measurement": "Growth Inhibition Rate", "setting": "Meth A solid tumor; Day 21, 50 mg/kg p.o.", "result": 50.7, "unit": "%"}, {"measurement": "Size of Tumor", "setting": "Meth A solid tumor; Day 21, 50 mg/kg p.o.", "result": "235.8 ± 124.4", "unit": "mm^2"}, {"measurement": "Growth Inhibition Rate", "setting": "Meth A solid tumor; Day 21, 100 mg/kg p.o.", "result": 44.7, "unit": "%"}, {"measurement": "Size of Tumor", "setting": "Meth A solid tumor; Day 21, 100 mg/kg p.o.", "result": "264.4 ± 110.6", "unit": "mm^2"}]}
{"smiles": "O=c1[nH]c(=O)n(C2CCCO2)cc1F", "note": "(stereo not shown) [Futoraful, reference compound]", "values": [{"measurement": "Pulmonary metastasis-inhibition rate", "setting": "melanoma BL-6; [3]", "result": 35.7, "unit": "%"}, {"measurement": "The number of pulmonary nodules, median", "setting": "melanoma BL-6; [3]", "result": 13.5}, {"measurement": "The number of pulmonary nodules, range", "setting": "melanoma BL-6; [3]", "result": "1-49"}, {"measurement": "Pulmonary metastasis-inhibition rate", "setting": "melanoma BL-6; [4]", "result": 69.0, "unit": "%"}, {"measurement": "The number of pulmonary nodules, median", "setting": "melanoma BL-6; [4]", "result": 6.5}, {"measurement": "The number of pulmonary nodules, range", "setting": "melanoma BL-6; [4]", "result": "1-16"}]}
{"smiles": "CCOC(=O)C(C)(C)CCCCOc1ccc(OCCCCCOc2ccccn2)cc1", "note": "[Compound J, ethyl 6-[p-[5-(2-pyridyloxy)pentyloxy)phenoxy]-2,2-dimethylhexanoate]", "values": [{"measurement": "Growth Inhibition Rate", "setting": "Ehrlich solid tumor; [5]", "result": 20.9, "unit": "%"}, {"measurement": "Size of Tumor", "setting": "Ehrlich solid tumor; [5]", "result": "201.7 ± 48.2", "unit": "mm^2"}, {"measurement": "Growth Inhibition Rate", "setting": "Ehrlich solid tumor; [6]", "result": 34.7, "unit": "%"}, {"measurement": "Size of Tumor", "setting": "Ehrlich solid tumor; [6]", "result": "166.5 ± 65.3", "unit": "mm^2"}, {"measurement": "Growth Inhibition Rate", "setting": "Ehrlich solid tumor; [7]", "result": 19.2, "unit": "%"}, {"measurement": "Size of Tumor", "setting": "Ehrlich solid tumor; [7]", "result": "344.7 ± 108.4", "unit": "mm^2"}, {"measurement": "Growth Inhibition Rate", "setting": "Ehrlich solid tumor; [8]", "result": 38.2, "unit": "%"}, {"measurement": "Size of Tumor", "setting": "Ehrlich solid tumor; [8]", "result": "263.5 ± 97.1", "unit": "mm^2"}]}
{"smiles": "COC(=O)C(C)(C)CCCOc1ccc(OCCCOc2cccnc2)cc1", "note": "[Compound I, methyl 2,2-dimethyl-5-[p-[3-(3-pyridyloxy)propoxy]phenoxy]pentanoate]", "values": [{"measurement": "Growth Inhibition Rate", "setting": "Ehrlich solid tumor; [9]", "result": 29.6, "unit": "%"}, {"measurement": "Size of Tumor", "setting": "Ehrlich solid tumor; [9]", "result": "164.9 ± 96.2", "unit": "mm^2"}, {"measurement": "Growth Inhibition Rate", "setting": "Ehrlich solid tumor; [10]", "result": 26.2, "unit": "%"}, {"measurement": "Size of Tumor", "setting": "Ehrlich solid tumor; [10]", "result": "172.8 ± 82.9", "unit": "mm^2"}, {"measurement": "Growth Inhibition Rate", "setting": "Ehrlich solid tumor; [11]", "result": 36.5, "unit": "%"}, {"measurement": "Size of Tumor", "setting": "Ehrlich solid tumor; [11]", "result": "148.7 ± 66.8", "unit": "mm^2"}, {"measurement": "Growth Inhibition Rate", "setting": "Ehrlich solid tumor; [12]", "result": 36.9, "unit": "%"}, {"measurement": "Size of Tumor", "setting": "Ehrlich solid tumor; [12]", "result": "336.6 ± 160.0", "unit": "mm^2"}, {"measurement": "Growth Inhibition Rate", "setting": "Ehrlich solid tumor; [13]", "result": 30.7, "unit": "%"}, {"measurement": "Size of Tumor", "setting": "Ehrlich solid tumor; [13]", "result": "369.1 ± 203.5", "unit": "mm^2"}, {"measurement": "Growth Inhibition Rate", "setting": "Ehrlich solid tumor; [14]", "result": 45.6, "unit": "%"}, {"measurement": "Size of Tumor", "setting": "Ehrlich solid tumor; [14]", "result": "290.2 ± 115.5", "unit": "mm^2"}]}
{"smiles": "CCOC(=O)C(C)(C)CCCCCOc1ccc(OCCCCCn2ccnc2)cc1", "note": "[Compound C]", "values": [{"measurement": "Growth Inhibition Rate", "setting": "Ehrlich solid tumor; [9]", "result": 18.4, "unit": "%"}, {"measurement": "Size of Tumor", "setting": "Ehrlich solid tumor; [9]", "result": "191.1 ± 88.8", "unit": "mm^2"}, {"measurement": "Growth Inhibition Rate", "setting": "Ehrlich solid tumor; [10]", "result": 42.4, "unit": "%"}, {"measurement": "Size of Tumor", "setting": "Ehrlich solid tumor; [10]", "result": "135.0 ± 66.9", "unit": "mm^2"}, {"measurement": "Growth Inhibition Rate", "setting": "Ehrlich solid tumor; [11]", "result": 54.2, "unit": "%"}, {"measurement": "Size of Tumor", "setting": "Ehrlich solid tumor; [11]", "result": "107.3 ± 46.7", "unit": "mm^2"}, {"measurement": "Growth Inhibition Rate", "setting": "Ehrlich solid tumor; [12]", "result": 31.9, "unit": "%"}, {"measurement": "Size of Tumor", "setting": "Ehrlich solid tumor; [12]", "result": "363.1 ± 188.8", "unit": "mm^2"}, {"measurement": "Growth Inhibition Rate", "setting": "Ehrlich solid tumor; [13]", "result": 61.0, "unit": "%"}, {"measurement": "Size of Tumor", "setting": "Ehrlich solid tumor; [13]", "result": "207.9 ± 139.7", "unit": "mm^2"}, {"measurement": "Growth Inhibition Rate", "setting": "Ehrlich solid tumor; [14]", "result": 4.2, "unit": "%"}, {"measurement": "Size of Tumor", "setting": "Ehrlich solid tumor; [14]", "result": "190.7 ± 69.1", "unit": "mm^2"}]}
